Test [1] relates to Fgf20 and Sal4. The test can be described thus: Wnt-target gene mRNA levels (qPCR) in LiCl-treated HCT116 cells. It is filed as cell-based, human. The following applies: HCT116, LiCl 50 mM, 24 h, 10 μM. As to the method: To this end, HCT116 cells were treated for 24 h with 50 mM LiCl and increasing concentrations (10–50–100 μM) of the two compounds.
HCT116 was treated with LiCl (50 mM) and 10 μM compound 9 or 10 for 24 h. Fgf20, Sall4 (Wnt-target genes) mRNA levels were measured by qPCR and normalized to the expression of β-actin mRNA. Results are expressed as fold change relative to the control sample and represent the mean ± SD of three independent experiments, each performed in triplicate. *p < 0.05, **p < 0.01, ***p < 0.001 as determined by ANOVA.
(Real-time PCR tracks product formation cycle by cycle.)

Test [2] deals with HCT116 xenograft. The test can be described thus: In vivo HCT116 xenograft tumor growth inhibition. On the set-up: species or system BALB/C^nu/nu mice. On the procedure: Ten-week-old female BALB/C^nu/nu mice were inoculated subcutaneously with HCT116 cells (1 × 10^8 cells/mL) at the logarithmic growth phase. Compound 9 (100 μL, 25 mg/kg) was administered through an intraperitoneal injection every 2 days after tumorigenesis. Mice were euthanized on day 30, and tumors on the backs were collected for the measurement of tumor volume and weight.
Figure 12 Compound 9 inhibited the in vivo tumorigenicity of human colorectal cancer line HCT116. (A) Tumor tissues. (B) Top panel. The volume of tumors originating. *p < 0.05 vs. the control group; t-test; n = 4. (B) Bottom panel. The weight of tumors originating. *p < 0.05 vs. the control group; t-test; n = 4. […] Magnification 200×.
Nuclear protein Ki67 is a proliferation marker of tumor cell proliferation and is an indicator in cancer diagnosis through a biopsy.[38] CD31 is a marker of angiogenesis, along with the vascular endothelial growth factor (VEGF).[39] CD31 has been found in the angiogenetic early breast cancer tissues and is highly expressed on the surface of endothelial cells.[40]
Briefly, all 10-week-old female BALB/C^nu/nu mice (8 mice) were purchased from the Shanghai University of Traditional Chinese Medicine with Institutional Animal Care and Use Committee approval in accordance with institutional guidelines. All mice were randomly divided into […]. In the #1 group (4 mice), 1 × 10^8 cells/mL from HCT116 at the logarithmic growth phase were harvested and inoculated subcutaneously into BALB/C^nu/nu mice and intraperitoneally injected with 100 μL of compound 9 (25 mg/kg) every 2 days after tumorigenesis. In the #2 group (4 mice), 1 × 10^8 cells/mL from […] at the logarithmic growth phase were harvested and inoculated subcutaneously into BALB/C^nu/nu mice and intraperitoneally injected 100 μL of saline every 2 days after tumorigenesis. After continuous feeding for 30 days, the mice were sacrificed, and the tumors were removed. The tumors were weighed, and the volumes were calculated using the following formula: tumor volume (cm^3) = (ab^2)/2 (a: the longest axis (cm), b: the shortest axis (cm))
Briefly, fresh tissues were immersed in 4% paraformaldehyde (Sigma-Aldrich) for fixation at room temperature for 30 min. The tissues were then dehydrated in an ethanol gradient, embedded in paraffin, sectioned (thickness: 6 μm), and immersed in xylene for dewaxing. Tissue sections were blocked with an immunohistochemical blocking solution (Beyotime Biotechnology Co., Ltd., Zhejiang, China) at 37 °C for 30 min. The blocking solution was then discarded, and the sections were washed 3 times at room temperature for 5 min each with an immunohistochemical washing solution (Beyotime Biotechnology). […]

Test [3] deals with β-catenin. The test can be described thus: Wnt reporter assay (TOP/FOP luciferase) in LiCl-treated HCT116 cells. The following applies: Homo sapiens, HCT-116, read-out: IC50, inhibition of β-catenin (luciferase reporter), LiCl 50 mM, 24 h. Type of test: cell-based. On the procedure:
Compounds 9 and 10 were assayed at increasing 10 and 100 nM and 1 μM concentrations in HCT116 cells transfected with luciferase-based vectors and treated with LiCl (50 mM). TOP TK is a well-established Wnt reporter vector containing eight sequences of Tcf/Lef binding site upstream of the timidine kinase (TK) minimal promoter, driving the expression of firefly luciferase.
Figure 6 HCT116 cells were transfected with luciferase-based vectors and treated with LiCl (50 mM) together with increasing concentrations of compound 9 or 10. Cells were harvested 24 h post-treatment and assayed for luciferase activity. Inhibitions were calculated as the luciferase/renilla ratio of the treated samples vs. the luciferase/renilla ratio of the untreated (control) samples. Data are represented as the mean ± SD of three independent experiments, each performed in triplicate. **p < 0.01, ***p < 0.001, n.s = not significant, as determined by analysis of variance (ANOVA).
Luciferase assays were performed as previously described.[58],[59] Briefly, HCT116 cells were transfected with Topflash reporter (M50 Super 8x TOPFlash, containing 8 repeats of TCF/LEF binding sites) or Fopflash reporter (M51 Super 8x FOPFlash, containing the mutated TCF/LEF binding sites) plasmids using the Dreamfect Gold Transfection Reagent (#DG80500, OZ Biosciences). […]
Background: A reporter such as luciferase makes a cellular process visible.

The mark [4] stands for this setting: 25 mg/kg i.p. every 2 days, day 30.
The mark [5] stands for this setting: immunofluorescence staining, 25 mg/kg i.p.

Broadly, the IC50 is the concentration needed to halve the response being measured. For `O=S(=O)(Nc1ccc(-c2ccccn2)cc1)c1ccc(Br)cc1` [Compound 9, 4-Bromo-N-(4-(pyridin-2-yl)phenyl)benzenesulfonamide], the “mRNA levels of Wnt-target genes Fgf20 and Sal4” value in test [1] is on record as “strongly inhibited”. In addition, in test [2] (setting [4]), the “tumor volume vs control group (saline)” value was “significantly smaller” and the “tumor weight vs control group (saline)” value is on record as “significantly smaller”. Moreover, in test [2] (setting [5]), the “expression of angiogenesis marker CD31 in tumor tissues” value is listed as “significantly lower expression” and the “expression of proliferation factor Ki67 in tumor tissues” value is listed as “significantly lower expression”. In test [3], the IC50 was more than 1 µM.
